Reference: US20230286973A1, “PROTEIN SECRETION INHIBITORS” (KEZAR LIFE SCIENCES, priority 2020, published 2023)
Where two headings read alike, the source gives them in different places.

Assays:
[1] = test system: multiple myeloma cell line NCI-H929; assay: H929 Cell Viability Assay; type: cell-based, human; conditions: Homo sapiens, NCI-H929, 48 h, NCI-H929 cells, Celltiter-Glo
Method in brief: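 Luminescent ATP detection (CellTiter-Glo) after 48 hours of compound exposure measures viability. Cells were plated in RPMI 1640 containing 10% fetal bovine serum and kept at 37° C under 5% CO2.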

[2] = test system: HER3-ss+4aa/Gaussia Luciferase; assay: Dox-Induced Her3-ss-Gluc Assay; type: cell-based; conditions: 24 hr Dox induction, 293FRT/TO cells, read-out: 24 hr Dox Inducible Her3(ss + 4)Gluc 293FRT/TO: Mean IC50
Method in brief: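 Cells were seeded a day ahead, then given compound diluted in DMSO/media with doxycycline to induce expression of the HER3 signal sequence (+4 aa)–Gaussia luciferase fusion. Incubation was at 37° C., 5% CO2, in a stable Flp-In 293 T-REx line.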

[3] = Liver Microsome Stability Assay (monkey); conditions: monkey liver microsomes, with NADPH, 1.0 uM compound
Protocol: (§1) Stability of a compound was assessed in the presence of liver microsomes from various sources—mouse, rat, monkey and human liver microsomes. 1.0 uM compound, 0.4% DMSO in 0.1 M Potassium Phosphate with 1.0 mg/mL liver microsomes, were incubated at 37° C. with or without 1 mM NADPH. The samples were quenched at 0, and 30 minutes.

[4] = Liver Microsome Stability Assay (rat); conditions: rat liver microsomes, with NADPH, 1.0 uM compound
Protocol: as §1

[5] = test system: TNFα-FL/Gaussia Luciferase; assay: Dox Induced TNFα-FL-Gluc Assay; type: cell-based; conditions: for IC50: 24 hr Dox induction, 293FRT/TO cells, read-out: 24 hr Dox Inducible TNFaFLGluc 293FRT/TO: Mean IC50; for 24 hr Dox Inducible TNFaFLGluc 293FRT/TO: TNF/PD1: ratio of TNFaFLGluc IC50 to PD1ssGluc IC50
Method in brief: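 Stereoisomer mixtures were tested where stereochemistry is not drawn. Induction used doxycycline added together with compound dilutions in DMSO/media to Flp-In 293 T-REx cells carrying a T-REx-regulated TNFα (aa 1-233)-Gaussia luciferase construct, then incubated at 37 °C, 5% CO2.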

[6] = test system: PD1-ss+10aa/Gaussia Luciferase; assay: Dox-Induced PD1-ss-Gluc Assay; type: cell-based; conditions: 24 hr Dox induction, 293FRT/TO cells, read-out: 24 hr Dox Inducible PD1ssGluc 293FRT/TO: Mean IC50
Method in brief: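 Doxycycline-induced expression of a PD1-ss+10aa/Gaussia luciferase reporter is measured in stable Flp-In 293 T-REx cells. Compound dilutions containing doxycycline are added one day after plating and incubated at 37 °C, 5% CO2. Values for unassigned stereocentres refer to stereoisomer mixtures.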

[7] = Liver Microsome Stability Assay (human); conditions: human liver microsomes, with NADPH, 1.0 uM compound
Protocol: as §1

[8] = Liver Microsome Stability Assay (mouse); conditions: mouse liver microsomes, with NADPH, 1.0 uM compound
Protocol: as §1

[9] = test system: multiple myeloma cell line U266B1; assay: U266 Cell Viability Assay; type: cell-based, human; conditions: Homo sapiens, U-266, 48 h, U266B1 cells, Celltiter-Glo
Method in brief: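 Steps: culture in RPMI 1640 plus 10% FBS and 2 mM glutamine; plate and add compound dilutions; incubate 48 hours at 37° C., 5% CO2; add CellTiter-Glo and quantify luciferase signal.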

[10] = test system: IL-2-FL/Gaussia Luciferase; assay: Dox Induced IL2-FL-Gluc Assay; type: cell-based; conditions: for IC50: 24 hr Dox induction, 293FRT/TO cells, read-out: 24 hr Dox Inducible IL2FLGluc 293FRT/TO: Mean IC50; for 24 hr Dox Inducible IL2FLGluc 293FRT/TO: IL2/PD1: ratio of IL2FLGluc IC50 to PD1ssGluc IC50
Method in brief: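 Cells are plated one day ahead, then receive compound dilutions in DMSO/media with doxycycline and incubate at 37° C, 5% CO2. They are Flp-In 293 T-REx cells expressing a full-length IL-2 (amino acids 1-153)–Gaussia luciferase fusion under T-REx control.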

[11] = '<=>' given where both are I.A.

CC(=O)N[C@H](C)c1ccc(N2CCC[C@@H]2c2csc(NC(=O)c3cccn3Cc3ccnc(F)c3)n2)cc1 [Compound A70, N-(4-((R)-1-(4-((R)-1-acetamidoethyl)phenyl)pyrrolidin-2-yl)thiazol-2-yl)-1-((2-fluoropyridin-4-yl)methyl)-1H-pyrrole-2-carboxamide]
EC50 [1]: 385 nM | IC50 [2]: 18.3 nM | Liver Microsome Stability (Multiple Species): Monkey - % Remaining after 30 min w/NADPH [3]: 0.83% | Liver Microsome Stability (Multiple Species): Rat - % Remaining after 30 min w/NADPH [4]: 7.79% | IC50 [5]: 236 nM | 24 hr Dox Inducible TNFaFLGluc 293FRT/TO: TNF/PD1 [5]: 18 | IC50 [6]: 13.2 nM | Liver Microsome Stability (Multiple Species): Human - % Remaining after 30 min w/NADPH [7]: 2.86% | Liver Microsome Stability (Multiple Species): Mouse - % Remaining after 30 min w/NADPH [8]: 23.7% | EC50 [9]: > 25000 nM | IC50 [10]: 30 nM | 24 hr Dox Inducible IL2FLGluc 293FRT/TO: IL2/PD1 [10]: 2.3

CCc1ccc(N2CCC[C@@H]2c2csc(NC(=O)c3cccn3CC3CCOCC3)n2)nc1 [Compound C85, (R)-N-(4-(1-(5-ethylpyridin-2-yl)pyrrolidin-2-yl)thiazol-2-yl)-1-((tetrahydro-2H-pyran-4-yl)methyl)-1H-pyrrole-2-carboxamide]
EC50 [1]: 6120 nM | IC50 ([2]; mean): 257 nM | Liver Microsome Stability (Multiple Species): Monkey - % Remaining after 30 min w/NADPH [3]: 0.21% | Liver Microsome Stability (Multiple Species): Rat - % Remaining after 30 min w/NADPH [4]: 11.2% | IC50 ([5]; mean): 1200 nM | 24 hr Dox Inducible TNFaFLGluc 293FRT/TO: TNF/PD1 [5, 11]: 9.53 | IC50 ([6]; mean): 126 nM | Liver Microsome Stability (Multiple Species): Human - % Remaining after 30 min w/NADPH [7]: 1.61% | Liver Microsome Stability (Multiple Species): Mouse - % Remaining after 30 min w/NADPH [8]: 21.3% | EC50 [9]: > 25000 nM | IC50 ([10]; mean): 279 nM | 24 hr Dox Inducible IL2FLGluc 293FRT/TO: IL2/PD1 [10, 11]: 2.2

O=C(Nc1nc([C@H]2CCCN2c2ccc(OC(F)(F)F)cc2)cs1)c1cccn1CC1CCOCC1 [Compound C54, (R)-1-((tetrahydro-2H-pyran-4-yl)methyl)-N-(4-(1-(4-(trifluoromethoxy)phenyl)pyrrolidin-2-yl)thiazol-2-yl)-1H-pyrrole-2-carboxamide]
EC50 [1]: 6520 nM | IC50 ([2]; mean): 272 nM | Liver Microsome Stability (Multiple Species): Monkey - % Remaining after 30 min w/NADPH [3]: 46.8% | Liver Microsome Stability (Multiple Species): Rat - % Remaining after 30 min w/NADPH [4]: 67.6% | IC50 ([5]; mean): 1790 nM | 24 hr Dox Inducible TNFaFLGluc 293FRT/TO: TNF/PD1 [5, 11]: 13.5 | IC50 ([6]; mean): 132 nM | Liver Microsome Stability (Multiple Species): Human - % Remaining after 30 min w/NADPH [7]: 77.9% | Liver Microsome Stability (Multiple Species): Mouse - % Remaining after 30 min w/NADPH [8]: 99.1% | EC50 [9]: > 25000 nM | IC50 ([10]; mean): 479 nM | 24 hr Dox Inducible IL2FLGluc 293FRT/TO: IL2/PD1 [10, 11]: 3.6

CC(=O)N1CCC(Oc2ccc(N3CCC[C@@H]3c3csc(NC(=O)c4cccn4Cc4ccncc4)n3)cc2)CC1 [Compound A7, (R)-N-(4-(1-(4-((1-acetylpiperidin-4-yl)oxy)phenyl)pyrrolidin-2-yl)thiazol-2-yl)-1-(pyridin-4-ylmethyl)-1H-pyrrole-2-carboxamide]
EC50 [1]: 497 nM | IC50 [2]: 25.2 nM | Liver Microsome Stability (Multiple Species): Monkey - % Remaining after 30 min w/NADPH [3]: 3.56% | Liver Microsome Stability (Multiple Species): Rat - % Remaining after 30 min w/NADPH [4]: 5.67% | IC50 [5]: 330 nM | 24 hr Dox Inducible TNFaFLGluc 293FRT/TO: TNF/PD1 [5]: 23.8 | IC50 [6]: 13.8 nM | Liver Microsome Stability (Multiple Species): Human - % Remaining after 30 min w/NADPH [7]: 4.64% | Liver Microsome Stability (Multiple Species): Mouse - % Remaining after 30 min w/NADPH [8]: 39.9% | EC50 [9]: > 25000 nM | IC50 [10]: 35.6 nM | 24 hr Dox Inducible IL2FLGluc 293FRT/TO: IL2/PD1 [10]: 2.6

O=C(Nc1nc(/C=C/c2cn3c(n2)CCC3)cs1)c1cccn1Cc1ccncc1 [Compound B71, (E)-N-(4-(2-(6,7-dihydro-5H-pyrrolo[1,2-a]imidazol-2-yl)vinyl)thiazol-2-yl)-1-(pyridin-4-ylmethyl)-1H-pyrrole-2-carboxamide]
EC50 [1]: > 25000 nM | IC50 [2]: > 25000 nM | Liver Microsome Stability (Multiple Species): Monkey - % Remaining after 30 min w/NADPH [3]: 0.03% | Liver Microsome Stability (Multiple Species): Rat - % Remaining after 30 min w/NADPH [4]: 0.1% | IC50 [5]: > 25000 nM | 24 hr Dox Inducible TNFaFLGluc 293FRT/TO: TNF/PD1 [5]: >83.9 | IC50 [6]: 298 nM | Liver Microsome Stability (Multiple Species): Human - % Remaining after 30 min w/NADPH [7]: 0.03% | Liver Microsome Stability (Multiple Species): Mouse - % Remaining after 30 min w/NADPH [8]: 0.16% | EC50 [9]: > 25000 nM | IC50 [10]: > 25000 nM | 24 hr Dox Inducible IL2FLGluc 293FRT/TO: IL2/PD1 [10]: >84

COc1ccc(O[C@@H]2CC[C@H](c3csc(NC(=O)c4cccn4Cc4ccncc4)n3)C2)nc1 [Compound E42, N-(4-((1S,3R)-3-((5-methoxypyridin-2-yl)oxy)cyclopentyl)thiazol-2-yl)-1-(pyridin-4-ylmethyl)-1H-pyrrole-2-carboxamide]
EC50 [1]: 17300 nM | IC50 ([2]; mean): 1120 nM | Liver Microsome Stability (Multiple Species): Monkey - % Remaining after 30 min w/NADPH [3]: 0.26% | Liver Microsome Stability (Multiple Species): Rat - % Remaining after 30 min w/NADPH [4]: 0.38% | IC50 ([5]; mean): 8110 nM | 24 hr Dox Inducible TNFaFLGluc 293FRT/TO: TNF/PD1 [5, 11]: 17.2 | IC50 ([6]; mean): 473 nM | Liver Microsome Stability (Multiple Species): Human - % Remaining after 30 min w/NADPH [7]: 0.09% | Liver Microsome Stability (Multiple Species): Mouse - % Remaining after 30 min w/NADPH [8]: 0.18% | EC50 [9]: > 25000 nM | IC50 ([10]; mean): 2590 nM | 24 hr Dox Inducible IL2FLGluc 293FRT/TO: IL2/PD1 [10, 11]: 5.5

CC(C)n1ccnc1/C=C/c1csc(NC(=O)c2cccn2Cc2ccnc(F)c2)n1 [Compound B95, (E)-1-((2-fluoropyridin-4-yl)methyl)-N-(4-(2-(1-isopropyl-1H-imidazol-2-yl)vinyl)thiazol-2-yl)-1H-pyrrole-2-carboxamide]
EC50 [1]: > 25000 nM | IC50 [2]: > 25000 nM | Liver Microsome Stability (Multiple Species): Monkey - % Remaining after 30 min w/NADPH [3]: 0.03% | Liver Microsome Stability (Multiple Species): Rat - % Remaining after 30 min w/NADPH [4]: 0.54% | IC50 [5]: > 25000 nM | 24 hr Dox Inducible TNFaFLGluc 293FRT/TO: TNF/PD1 [5]: >32.0 | IC50 [6]: 782 nM | Liver Microsome Stability (Multiple Species): Human - % Remaining after 30 min w/NADPH [7]: 0.04% | Liver Microsome Stability (Multiple Species): Mouse - % Remaining after 30 min w/NADPH [8]: 0.08% | EC50 [9]: > 25000 nM | IC50 [10]: > 25000 nM | 24 hr Dox Inducible IL2FLGluc 293FRT/TO: IL2/PD1 [10]: >32

CC1CCCn2cnc(/C=C/c3csc(NC(=O)c4cccn4Cc4ccnc(F)c4)n3)c21 (stereo not drawn) [Compound B102, (E)-1-((2-fluoropyridin-4-yl)methyl)-N-(4-(2-(8-methyl-5,6,7,8-tetrahydroimidazo[1,5-a]pyridin-1-yl)vinyl)thiazol-2-yl)-1H-pyrrole-2-carboxamide]
EC50 [1]: 21300 nM | IC50 [2]: 4560 nM | Liver Microsome Stability (Multiple Species): Monkey - % Remaining after 30 min w/NADPH [3]: 0.85% | Liver Microsome Stability (Multiple Species): Rat - % Remaining after 30 min w/NADPH [4]: 6.8% | IC50 [5]: > 25000 nM | 24 hr Dox Inducible TNFaFLGluc 293FRT/TO: TNF/PD1 [5]: >681 | IC50 [6]: 36.7 nM | Liver Microsome Stability (Multiple Species): Human - % Remaining after 30 min w/NADPH [7]: 0.71% | Liver Microsome Stability (Multiple Species): Mouse - % Remaining after 30 min w/NADPH [8]: 9.83% | EC50 [9]: > 25000 nM | IC50 [10]: 6360 nM | 24 hr Dox Inducible IL2FLGluc 293FRT/TO: IL2/PD1 [10]: 170
